These results are taken from patent publication US8871753B2, “Macrocyclic compounds and their use as kinase inhibitors” (Incyte Corporation, priority 2008, dated 2014).

Where a name gives a salt, the structure may show the parent alone. Some results are limits rather than exact numbers.

Type in all cases: biochemical
The target in assay [1] is T1, human JAK2 (a.a. 828-1132) (Homo sapiens, UniProt O60674).
T1 construct: JAK2 (a.a. 828-1132); His tag (N); made in house; host or cells: insect cells (baculovirus)
T1 sequence (O60674 828-1132): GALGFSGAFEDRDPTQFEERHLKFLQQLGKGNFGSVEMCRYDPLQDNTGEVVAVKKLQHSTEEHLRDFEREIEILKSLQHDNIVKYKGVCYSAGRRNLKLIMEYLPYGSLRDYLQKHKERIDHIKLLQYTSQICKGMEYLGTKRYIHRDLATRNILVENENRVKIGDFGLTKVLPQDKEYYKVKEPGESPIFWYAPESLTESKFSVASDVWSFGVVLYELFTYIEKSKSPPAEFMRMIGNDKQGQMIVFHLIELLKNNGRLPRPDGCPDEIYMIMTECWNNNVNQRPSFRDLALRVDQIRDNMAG
Nature of the assay: In vitro JAK kinase assay (HTRF, phosphorylation of a biotinylated peptide), JAK2. The following applies: Table B1. In short, it runs like this: (§1)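 Kinase reactions ran at room temperature for 1 h with ATP matched per isoform (JAK1 90 μM, JAK2 30 μM, JAK3 3 μM). After an EDTA stop, the phosphorylated biotin-peptide was read by HTRF using Eu-Py20 and SA-APC after 40 min binding.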
(In TR-FRET formats the signal depends on donor and acceptor labels being close together.)

In assay [2] the target is T2, human JAK3 (a.a. 781-1124) (Homo sapiens, UniProt P52333).
T2 construct: JAK3 (a.a. 781-1124); His tag (N); made in house; host or cells: insect cells (baculovirus)
T2 sequence (P52333 781-1124): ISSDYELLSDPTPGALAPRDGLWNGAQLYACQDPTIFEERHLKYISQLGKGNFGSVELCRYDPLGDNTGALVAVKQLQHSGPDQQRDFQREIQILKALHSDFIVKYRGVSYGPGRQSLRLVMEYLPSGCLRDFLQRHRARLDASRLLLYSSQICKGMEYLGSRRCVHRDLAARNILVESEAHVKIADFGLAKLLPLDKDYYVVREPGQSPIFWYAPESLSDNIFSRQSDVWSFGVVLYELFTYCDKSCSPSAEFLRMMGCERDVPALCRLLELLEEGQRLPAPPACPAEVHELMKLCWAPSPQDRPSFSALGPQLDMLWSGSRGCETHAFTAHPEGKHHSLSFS
Kind of assay: In vitro JAK kinase assay (HTRF, phosphorylation of a biotinylated peptide), JAK3. The following applies: Table B1. In short, it runs like this:
as §1

The target in assay [3] is TYK2 (Homo sapiens, UniProt P29597). Nature of the assay: TYK2 kinase inhibition (Table A1). The settings on record: Table B1.
Chain of TYK2 (P29597 whole entry): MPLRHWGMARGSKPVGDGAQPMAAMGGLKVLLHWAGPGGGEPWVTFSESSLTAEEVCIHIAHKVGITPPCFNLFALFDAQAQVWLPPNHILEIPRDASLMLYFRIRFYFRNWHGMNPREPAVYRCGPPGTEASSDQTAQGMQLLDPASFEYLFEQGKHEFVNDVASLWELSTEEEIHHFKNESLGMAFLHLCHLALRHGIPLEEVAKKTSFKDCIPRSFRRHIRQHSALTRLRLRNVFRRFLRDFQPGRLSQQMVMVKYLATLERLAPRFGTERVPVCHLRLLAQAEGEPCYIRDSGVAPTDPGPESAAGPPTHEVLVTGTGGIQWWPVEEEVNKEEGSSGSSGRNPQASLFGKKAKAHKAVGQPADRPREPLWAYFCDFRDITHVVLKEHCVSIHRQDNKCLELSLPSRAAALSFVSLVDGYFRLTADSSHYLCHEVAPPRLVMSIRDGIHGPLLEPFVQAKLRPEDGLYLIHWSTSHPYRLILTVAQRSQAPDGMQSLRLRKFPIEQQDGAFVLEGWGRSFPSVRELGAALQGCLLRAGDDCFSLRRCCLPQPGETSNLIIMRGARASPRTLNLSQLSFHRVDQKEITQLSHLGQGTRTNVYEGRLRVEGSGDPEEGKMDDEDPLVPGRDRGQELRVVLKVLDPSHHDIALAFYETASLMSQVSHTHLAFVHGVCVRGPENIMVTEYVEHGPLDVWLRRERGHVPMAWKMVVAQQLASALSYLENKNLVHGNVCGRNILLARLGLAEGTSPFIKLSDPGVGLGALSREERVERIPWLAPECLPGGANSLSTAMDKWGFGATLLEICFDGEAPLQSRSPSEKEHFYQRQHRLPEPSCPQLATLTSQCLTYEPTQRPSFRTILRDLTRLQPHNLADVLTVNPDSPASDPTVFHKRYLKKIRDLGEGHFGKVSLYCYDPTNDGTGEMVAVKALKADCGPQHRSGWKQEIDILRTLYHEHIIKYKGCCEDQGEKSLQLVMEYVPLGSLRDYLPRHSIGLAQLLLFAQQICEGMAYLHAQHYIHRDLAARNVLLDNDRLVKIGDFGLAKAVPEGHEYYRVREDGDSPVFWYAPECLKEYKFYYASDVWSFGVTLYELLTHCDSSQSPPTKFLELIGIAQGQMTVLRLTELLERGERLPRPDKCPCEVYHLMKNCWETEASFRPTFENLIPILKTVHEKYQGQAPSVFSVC
The target of assay [4] is T3, Recombinant Human Anaplastic Lymphoma Kinase (Homo sapiens, UniProt Q9UM73).
T3 construct: purchased Invitrogen, Carlsbad, Calif
T3 sequence (Q9UM73 19-1620): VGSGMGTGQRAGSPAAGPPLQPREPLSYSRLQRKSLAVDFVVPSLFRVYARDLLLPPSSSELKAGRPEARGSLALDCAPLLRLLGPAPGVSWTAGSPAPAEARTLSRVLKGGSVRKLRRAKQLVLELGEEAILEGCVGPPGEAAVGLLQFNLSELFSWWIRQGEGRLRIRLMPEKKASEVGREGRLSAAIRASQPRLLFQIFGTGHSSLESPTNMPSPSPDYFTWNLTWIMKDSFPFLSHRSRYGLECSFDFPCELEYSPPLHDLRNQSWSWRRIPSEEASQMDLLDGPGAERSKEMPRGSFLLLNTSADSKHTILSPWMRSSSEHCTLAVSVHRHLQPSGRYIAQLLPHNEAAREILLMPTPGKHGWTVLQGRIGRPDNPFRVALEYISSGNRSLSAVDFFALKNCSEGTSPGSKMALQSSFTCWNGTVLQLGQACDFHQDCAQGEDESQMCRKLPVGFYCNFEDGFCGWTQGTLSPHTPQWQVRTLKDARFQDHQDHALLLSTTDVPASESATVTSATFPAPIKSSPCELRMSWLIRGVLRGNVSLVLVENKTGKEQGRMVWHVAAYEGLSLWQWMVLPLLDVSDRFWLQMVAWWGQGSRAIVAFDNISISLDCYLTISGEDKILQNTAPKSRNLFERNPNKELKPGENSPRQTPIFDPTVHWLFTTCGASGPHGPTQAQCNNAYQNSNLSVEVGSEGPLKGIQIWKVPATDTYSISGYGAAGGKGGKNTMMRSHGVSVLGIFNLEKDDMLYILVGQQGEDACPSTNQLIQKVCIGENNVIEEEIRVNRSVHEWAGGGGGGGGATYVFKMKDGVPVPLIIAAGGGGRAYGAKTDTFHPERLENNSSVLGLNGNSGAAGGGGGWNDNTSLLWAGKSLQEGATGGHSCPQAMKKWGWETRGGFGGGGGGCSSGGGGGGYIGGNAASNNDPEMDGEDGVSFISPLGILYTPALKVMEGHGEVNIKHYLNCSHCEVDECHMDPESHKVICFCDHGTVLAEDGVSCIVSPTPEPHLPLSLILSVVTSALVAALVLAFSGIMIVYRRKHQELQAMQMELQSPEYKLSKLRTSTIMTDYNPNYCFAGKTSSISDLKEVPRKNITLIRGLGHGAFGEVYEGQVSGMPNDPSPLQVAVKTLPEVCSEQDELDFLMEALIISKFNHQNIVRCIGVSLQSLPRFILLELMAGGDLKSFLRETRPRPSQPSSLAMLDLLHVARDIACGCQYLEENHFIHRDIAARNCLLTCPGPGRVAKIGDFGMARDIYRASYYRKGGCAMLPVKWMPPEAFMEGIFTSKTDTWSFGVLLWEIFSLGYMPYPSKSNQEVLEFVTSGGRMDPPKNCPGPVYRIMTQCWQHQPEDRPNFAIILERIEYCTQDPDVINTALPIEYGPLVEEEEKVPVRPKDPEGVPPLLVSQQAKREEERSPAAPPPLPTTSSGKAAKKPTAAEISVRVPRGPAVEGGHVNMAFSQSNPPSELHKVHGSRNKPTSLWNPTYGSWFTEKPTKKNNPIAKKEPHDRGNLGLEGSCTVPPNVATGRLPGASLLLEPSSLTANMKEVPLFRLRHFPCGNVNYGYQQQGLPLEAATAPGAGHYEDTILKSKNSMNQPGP
Nature of the assay: ALK HTRF kinase assay. The settings on record: for IC50: Table B1, cells without percent sign. In short, it runs like this: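 Readout was HTRF between a Eu-W1024 anti-phosphotyrosine antibody and streptavidin-APC bound to biotinylated peptide phosphorylated by recombinant human ALK. IC50 values came from a four-parameter logistic fit.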

In assay [5] the target is T4, human JAK1 (a.a. 837-1142) (Homo sapiens, UniProt P23458).
T4 construct: human JAK1 (a.a. 837-1142); His tag (N); made in house; host or cells: insect cells (baculovirus)
T4 sequence (P23458 849-1154): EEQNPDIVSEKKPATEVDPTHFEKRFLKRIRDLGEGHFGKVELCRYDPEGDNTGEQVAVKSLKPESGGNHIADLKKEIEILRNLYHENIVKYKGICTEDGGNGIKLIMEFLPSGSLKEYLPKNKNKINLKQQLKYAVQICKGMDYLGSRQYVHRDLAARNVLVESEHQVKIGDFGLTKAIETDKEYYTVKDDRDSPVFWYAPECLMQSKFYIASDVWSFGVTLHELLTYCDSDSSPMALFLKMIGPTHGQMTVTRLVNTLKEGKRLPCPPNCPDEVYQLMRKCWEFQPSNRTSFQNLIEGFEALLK
Nature of the assay: In vitro JAK kinase assay (HTRF, phosphorylation of a biotinylated peptide), JAK1. The settings on record: Table B1; read-out: JAK1 IC50. In a few lines:
as §1

In general, IC50 refers to the point on the concentration scale where inhibition reaches its midpoint. Take `O=S(=O)(c1ccc(Cl)cc1)c1ccc(CN2CCN(Cc3cc4cc(c3)Nc3nc(ncc3Cl)Nc3cccc(c3)CC4)CC2)cc1` [Example B195, 6-Chloro-11-[(4-{4-[(4-chlorophenyl)sulfonyl]benzyl}piperazin-1-yl)methyl]-2,4,8,22-tetraazatetracyclo[14.3.1.1(3,7).1(9,13)]docosa-1(20),3(22),4,6,9(21),10,12,16,18-nonaene tris(trifluoroacetate)]: the IC50 in assay [1] is 91 nM; in assay [2] it was > 1000 nM; in assay [3] it was > 1000 nM; in assay [4] it was > 10 µM; in assay [5], > 1000 nM.
In the case of `Clc1cnc2nc1Nc1cc(cc(CN3CCN(Cc4cc(Br)cs4)CC3)c1)CCc1cccc(c1)N2` [Example B196, 11-({4-[(4-Bromo-2-thienyl)methyl]piperazin-1-yl}methyl)-6-chloro-2,4,8,22-tetraazatetracyclo[14.3.1.1(3,7).1(9,13)]docosa-1(20),3(22),4,6,9(21),10,12,16,18-nonaene tris(trifluoroacetate)], the IC50 is 0.88 nM in assay [1]; 48 nM in assay [2]; 111 nM in assay [3]; > 10 µM in assay [4]; 3.5 nM in assay [5].
As to `COc1ccc(CN2CCN(Cc3cc4cc(c3)Nc3nc(ncc3Cl)Nc3cccc(c3)CC4)CC2)cc1` [Example B197, 6-Chloro-11-{[4-(4-methoxybenzyl)piperazin-1-yl]methyl}-2,4,8,22-tetraazatetracyclo[14.3.1.1(3,7).1(9,13)]docosa-1(20),3(22),4,6,9(21),10,12,16,18-nonaene tris(trifluoroacetate)], the IC50 was 2.2 nM in assay [1]; 138 nM in assay [2]; 188 nM in assay [3]; > 1 µM in assay [4]; 18 nM in assay [5].
Take `COc1cccc(CN2CCN(Cc3cc4cc(c3)Nc3nc(ncc3Cl)Nc3cccc(c3)CC4)CC2)c1` [Example B198, 6-Chloro-11-{[4-(3-methoxybenzyl)piperazin-1-yl]methyl}-2,4,8,22-tetraazatetracyclo[14.3.1.1(3,7).1(9,13)]docosa-1(20),3(22),4,6,9(21),10,12,16,18-nonaene tris(trifluoroacetate)]: the IC50 in assay [1] is 10 nM; in assay [2] it was 161 nM; in assay [3], 289 nM; in assay [4], > 10 µM; in assay [5] it was 39 nM.
In the case of `Clc1ccc(CN2CCN(Cc3cc4cc(c3)Nc3nc(ncc3Cl)Nc3cccc(c3)CC4)CC2)cc1` [Example B199, 6-Chloro-11-{[4-(4-chlorobenzyl)piperazin-1-yl]methyl}-2,4,8,22-tetraazatetracyclo[14.3.1.1(3,7).1(9,13)]docosa-1(20),3(22),4,6,9(21),10,12,16,18-nonaene tris(trifluoroacetate)], the IC50 in assay [1] was 2.7 nM; in assay [2], 64 nM; in assay [3], 154 nM; in assay [4] it was > 1 µM; in assay [5] it was 4.9 nM.
For `O=C(Nc1ccccc1)c1ccc2cc1CCc1cccc(c1)Nc1ncc(Cl)c(n1)N2` [Example B200, 6-Chloro-N-phenyl-2,4,8,22-tetraazatetracyclo[14.3.1.1(3,7).1(9,13)]docosa-1(20),3(22),4,6,9(21),10,12,16,18-nonaene-12-carboxamide trifluoroacetate], the IC50 in assay [1] came to 17 nM; in assay [2], 118 nM; in assay [3], 85 nM; in assay [4], 4.4 µM; in assay [5], 82 nM.
`O=C(Nc1cc2cc(c1)Nc1nc(ncc1Cl)Nc1cccc(c1)CC2)c1ccccn1` [Example B201, N-[6-Chloro-2,4,8,22-tetraazatetracyclo[14.3.1.1(3,7).1(9,13)]docosa-1(20),3(22),4,6,9(21),10,12,16,18-nonaen-11-yl]pyridine-2-carboxamide trifluoroacetate]: the IC50 is 410 nM in assay [1]; 454 nM in assay [2]; > 1000 nM in assay [3]; > 10 µM in assay [4]; 119 nM in assay [5].
For the compound `O=C(Nc1ccccc1)Nc1cc2cc(c1)Nc1nc(ncc1Cl)Nc1cccc(c1)CC2` [Example B202, N-[6-Chloro-2,4,8,22-tetraazatetracyclo[14.3.1.1(3,7).1(9,13)]docosa-1(20),3(22),4,6,9(21),10,12,16,18-nonaen-11-yl]-N′-phenylurea trifluoroacetate], the IC50 in assay [1] turned out to be 56 nM; in assay [2], 101 nM; in assay [3], 205 nM; in assay [4] it was 3.6 µM; in assay [5], 36 nM.
In the same order, the values of `O=S(=O)(Nc1cc2cc(c1)Nc1nc(ncc1Cl)Nc1cccc(c1)CC2)c1ccccc1` [Example B203, N-[6-Chloro-2,4,8,22-tetraazatetracyclo[14.3.1.1(3,7).1(9,13)]docosa-1(20),3(22),4,6,9(21),10,12,16,18-nonaen-11-yl]benzenesulfonamide trifluoroacetate] are 19 nM, 102 nM, 34 nM, > 10 µM and 44 nM.
In the same order, the values of `O=C(Nc1cc2cc(c1)Nc1nc(ncc1Cl)Nc1cccc(c1)CC2)c1nc2ccccc2s1` [Example B204, N-[6-Chloro-2,4,8,22-tetraazatetracyclo[14.3.1.1(3,7).1(9,13)]docosa-1(20),3(22),4,6,9(21),10,12,16,18-nonaen-11-yl]-1,3-benzothiazole-2-carboxamide trifluoroacetate] are 500 nM, > 1000 nM, > 1000 nM, > 10 µM and > 1000 nM.
In the same order, the values of `Cc1cc(C(=O)Nc2cc3cc(c2)Nc2nc(ncc2Cl)Nc2cccc(c2)CC3)no1` [Example B205, N-[6-Chloro-2,4,8,22-tetraazatetracyclo[14.3.1.1(3,7).1(9,13)]docosa-1(20),3(22),4,6,9(21),10,12,16,18-nonaen-11-yl]-5-methylisoxazole-3-carboxamide trifluoroacetate] are 146 nM, 509 nM, > 1000 nM, > 10 µM and 188 nM.
Regarding `O=C(Nc1cc2cc(c1)Nc1nc(ncc1Cl)Nc1cccc(c1)CC2)c1ccno1` [Example B206, N-[6-Chloro-2,4,8,22-tetraazatetracyclo[14.3.1.1(3,7).1(9,13)]docosa-1(20),3(22),4,6,9(21),10,12,16,18-nonaen-11-yl]isoxazole-5-carboxamide trifluoroacetate], the IC50 was 15 nM in assay [1]; 41 nM in assay [2]; 46 nM in assay [3]; > 10 µM in assay [4]; 16 nM in assay [5].
For `Cn1cncc1C(=O)Nc1cc2cc(c1)Nc1nc(ncc1Cl)Nc1cccc(c1)CC2` [Example B208, N-[6-Chloro-2,4,8,22-tetraazatetracyclo[14.3.1.1(3,7).1(9,13)]docosa-1(20),3(22),4,6,9(21),10,12,16,18-nonaen-11-yl]-1-methyl-1H-imidazole-5-carboxamide trifluoroacetate], the IC50 was 57 nM in assay [1]; 84 nM in assay [2]; 150 nM in assay [3]; > 1 µM in assay [4]; 209 nM in assay [5].
Turning to `O=C(Nc1cc2cc(c1)Nc1nc(ncc1Cl)Nc1cccc(c1)CC2)c1nccs1` [Example B209, N-[6-Chloro-2,4,8,22-tetraazatetracyclo[14.3.1.1(3,7).1(9,13)]docosa-1(20),3(22),4,6,9(21),10,12,16,18-nonaen-11-yl]-1,3-thiazole-2-carboxamide trifluoroacetate], the IC50 in assay [1] is 51 nM; in assay [2], 140 nM; in assay [3] it was 110 nM; in assay [4], > 1 µM; in assay [5], 64 nM.
`Cc1ncoc1C(=O)Nc1cc2cc(c1)Nc1nc(ncc1Cl)Nc1cccc(c1)CC2` [Example B210, N-[6-Chloro-2,4,8,22-tetraazatetracyclo[14.3.1.1(3,7).1(9,13)]docosa-1(20),3(22),4,6,9(21),10,12,16,18-nonaen-11-yl]-4-methyl-1,3-oxazole-5-carboxamide trifluoroacetate]: the IC50 in assay [1] is 42 nM; in assay [2] it was 76 nM; in assay [3], 357 nM; in assay [4], > 1 µM; in assay [5] it was 62 nM.
Turning to `N#Cc1ccc(NC(=O)Nc2cc3cc(c2)Nc2nc(ncc2Cl)Nc2cccc(c2)CC3)cc1` [Example B212, N-[6-Chloro-2,4,8,22-tetraazatetracyclo[14.3.1.1(3,7).1(9,13)]docosa-1(20),3(22),4,6,9(21),10,12,16,18-nonaen-11-yl]-N′-(4-cyanophenyl)urea trifluoroacetate], the IC50 in assay [1] came out at 238 nM; in assay [2], 312 nM; in assay [3] it was 500 nM; in assay [5], 400 nM. Further, in assay [4] (compound at a concentration of 500 nM or 1 mM (not specified), cells shown as percentage), the “ALK % of inhibition at a concentration of 500 nM or 1 mM” value is 14%.
